Values of other authors in US20200397756A1, “A STABLE PHARMACEUTICAL COMPOSITION OF POORLY SOLUBLE NONSTEROIDAL ANTIANDROGENS” (KASHIV BIOSCIENCES, LLC, priority 2018, published 2020).

Key:
[1] = not given; remark: listed apart in the source
[2] = water between pH 1 to 11

Row | permeability | solubility in absolute ethanol [1] | solubility in water [2] | SMILES
1 | high | sparingly soluble | practically insoluble | CNC(=O)c1ccc(N2C(=S)N(c3ccc(C#N)c(C(F)(F)F)c3)C(=O)C2(C)C)cc1F [Enzalutamide, 4-{3-[4-cyano-3-(trifluoromethyl)phenyl]-5,5-dimethyl-4-oxo-2-sulfanylideneimidazolidin-1-yl}-2-fluoro-N-methylbenzamide]
2 | high | sparingly soluble | practically insoluble | CNC(=O)c1ccc(N2C(=S)N(c3cnc(C#N)c(C(F)(F)F)c3)C(=O)C23CCC3)cc1F [apalutamide, 4-(7-(6-Cyano-5-(trifluoromethyl)pyridin-3-yl)-8-oxo-6-thioxo-5,7-diazaspiro(3.4)octan-5-yl)-2-fluoro-N-methylbenzamide]
